Test results as given in US8778873B2, “Parenteral combination therapy for infective conditions with drug resistant bacterium” (Venus Remedies Limited, priority 2005, dated 2014).
Where a name gives a salt, the structure may show the parent alone.

Key:
[1] = system: penicillin- and quinolone-resistant pneumococcal mutant strain; conditions: experimental rabbit meningitis; cited from earlier work
[2] = system: S. aurens (MRSA); test: Average MIC data, growth at serial concentrations; assay type: cell-based
From the text: (§1) Minimum Inhibitory Concentration Data
(§2) Average MIC data with growth details in various concentration of ceftriaxone and vancomycin combination of the present invention, ceftriaxone alone and vancomycin alone with following bacteria such as MSSA, Enterococcus, S. pneumoniae, Penicillin resistant streptococcus pneumoniae, MRSA.

[3] = system: S. aurens; test: Average MIC data, growth at serial concentrations; assay type: cell-based
From the text: as §1, §2

[4] = system: Streptococcus pneumoniae; test: Average MIC data, growth at serial concentrations; assay type: cell-based
From the text: as §1, §2

[5] = system: S. pneumoniae; test: Average MIC data, growth at serial concentrations; assay type: cell-based
From the text: as §1, §2

[6] = system: Enterococcus; test: Average MIC data, growth at serial concentrations; assay type: cell-based
From the text: as §1, §2

CO/N=C(\C(=O)N[C@@H]1C(=O)N2C(C(=O)[O-])=C(C[N+]3(C)CCCC3)CS[C@H]12)c1csc(N)n1 [cefepime]
−0.61+/−0.24 Delta log(10) cfu/mL×h: bactericidal activity [1]

CN[C@H](CC(C)C)C(=O)N[C@H]1C(=O)N[C@@H](CC(N)=O)C(=O)N[C@H]2C(=O)N[C@H]3C(=O)N[C@H](C(=O)N[C@H](C(=O)O)c4cc(O)cc(O)c4-c4cc3ccc4O)[C@H](O)c3ccc(c(Cl)c3)Oc3cc2cc(c3O[C@@H]2O[C@H](CO)[C@@H](O)[C@H](O)[C@H]2O[C@H]2C[C@](C)(N)[C@H](O)[C@H](C)O2)Oc2ccc(cc2Cl)[C@H]1O [Vancomycin]
No growth: Growth at concentration (Average MIC data) ([2]; 4 μg/ml) | Growth at concentration (Average MIC data) ([2]; 8 μg/ml) | Growth at concentration (Average MIC data) ([2]; 16 μg/ml) | Growth at concentration (Average MIC data) ([2]; 32 μg/ml) | Growth at concentration (Average MIC data) ([2]; 64 μg/ml) | Growth at concentration (Average MIC data) ([2]; 128 μg/ml) | Growth at concentration (Average MIC data) ([3]; 4 μg/ml) | Growth at concentration (Average MIC data) ([3]; 8 μg/ml) | Growth at concentration (Average MIC data) ([3]; 16 μg/ml) | Growth at concentration (Average MIC data) ([3]; 32 μg/ml) | Growth at concentration (Average MIC data) ([3]; 64 μg/ml) | Growth at concentration (Average MIC data) ([3]; 128 μg/ml) | Growth at concentration (Average MIC data) ([4]; 1 μg/ml) | Growth at concentration (Average MIC data) ([4]; 2 μg/ml) | Growth at concentration (Average MIC data) ([4]; 4 μg/ml) | Growth at concentration (Average MIC data) ([4]; 8 μg/ml) | Growth at concentration (Average MIC data) ([4]; 16 μg/ml) | Growth at concentration (Average MIC data) ([4]; 32 μg/ml) | Growth at concentration (Average MIC data) ([4]; 64 μg/ml) | Growth at concentration (Average MIC data) ([4]; 128 μg/ml) | Growth at concentration (Average MIC data) ([5]; 0.5 μg/ml) | Growth at concentration (Average MIC data) ([5]; 1 μg/ml) | Growth at concentration (Average MIC data) ([5]; 2 μg/ml) | Growth at concentration (Average MIC data) ([5]; 4 μg/ml) | Growth at concentration (Average MIC data) ([5]; 8 μg/ml) | Growth at concentration (Average MIC data) ([5]; 16 μg/ml) | Growth at concentration (Average MIC data) ([5]; 32 μg/ml) | Growth at concentration (Average MIC data) ([5]; 64 μg/ml) | Growth at concentration (Average MIC data) ([5]; 128 μg/ml) | Growth at concentration (Average MIC data) ([6]; 0.5 μg/ml) | Growth at concentration (Average MIC data) ([6]; 1 μg/ml) | Growth at concentration (Average MIC data) ([6]; 2 μg/ml) | Growth at concentration (Average MIC data) ([6]; 4 μg/ml) | Growth at concentration (Average MIC data) ([6]; 8 μg/ml) | Growth at concentration (Average MIC data) ([6]; 16 μg/ml) | Growth at concentration (Average MIC data) ([6]; 32 μg/ml) | Growth at concentration (Average MIC data) ([6]; 64 μg/ml) | Growth at concentration (Average MIC data) ([6]; 128 μg/ml)
Growth Found: Growth at concentration (Average MIC data) ([2]; 0.125 μg/ml) | Growth at concentration (Average MIC data) ([2]; 0.25 μg/ml) | Growth at concentration (Average MIC data) ([2]; 0.5 μg/ml) | Growth at concentration (Average MIC data) ([2]; 1 μg/ml) | Growth at concentration (Average MIC data) ([2]; 2 μg/ml) | Growth at concentration (Average MIC data) ([3]; 0.125 μg/ml) | Growth at concentration (Average MIC data) ([3]; 0.25 μg/ml) | Growth at concentration (Average MIC data) ([3]; 0.5 μg/ml) | Growth at concentration (Average MIC data) ([3]; 1 μg/ml) | Growth at concentration (Average MIC data) ([3]; 2 μg/ml) | Growth at concentration (Average MIC data) ([4]; 0.125 μg/ml) | Growth at concentration (Average MIC data) ([4]; 0.25 μg/ml) | Growth at concentration (Average MIC data) ([4]; 0.5 μg/ml) | Growth at concentration (Average MIC data) ([5]; 0.125 μg/ml) | Growth at concentration (Average MIC data) ([5]; 0.25 μg/ml) | Growth at concentration (Average MIC data) ([6]; 0.125 μg/ml) | Growth at concentration (Average MIC data) ([6]; 0.25 μg/ml)

CO/N=C(\C(=O)N[C@@H]1C(=O)N2C(C(=O)O)=C(CSc3nc(=O)c(=O)[nH]n3C)CS[C@H]12)c1csc(N)n1 [Ceftriaxone, (Z)-7-[2-(2-Aminothiazole-4-yl)-2-methoxyiminoacetamido]-3-[(2,5-dihydro-6-hydroxy-2-methyl-5-oxo-1,2,4-triazin-3-yl)thiomethyl]-3-cephem-4-carboxylic acid, disodium salt, Sesquaterhydrate]
Growth Found: Growth at concentration (Average MIC data) ([2]; 0.125 μg/ml) | Growth at concentration (Average MIC data) ([2]; 0.25 μg/ml) | Growth at concentration (Average MIC data) ([2]; 0.5 μg/ml) | Growth at concentration (Average MIC data) ([2]; 1 μg/ml) | Growth at concentration (Average MIC data) ([2]; 2 μg/ml) | Growth at concentration (Average MIC data) ([2]; 4 μg/ml) | Growth at concentration (Average MIC data) ([2]; 8 μg/ml) | Growth at concentration (Average MIC data) ([2]; 16 μg/ml) | Growth at concentration (Average MIC data) ([2]; 32 μg/ml) | Growth at concentration (Average MIC data) ([3]; 0.125 μg/ml) | Growth at concentration (Average MIC data) ([3]; 0.25 μg/ml) | Growth at concentration (Average MIC data) ([3]; 0.5 μg/ml) | Growth at concentration (Average MIC data) ([4]; 0.125 μg/ml) | Growth at concentration (Average MIC data) ([4]; 0.25 μg/ml) | Growth at concentration (Average MIC data) ([4]; 0.5 μg/ml) | Growth at concentration (Average MIC data) ([4]; 1 μg/ml) | Growth at concentration (Average MIC data) ([4]; 2 μg/ml) | Growth at concentration (Average MIC data) ([5]; 0.125 μg/ml) | Growth at concentration (Average MIC data) ([5]; 0.25 μg/ml) | Growth at concentration (Average MIC data) ([6]; 0.125 μg/ml) | Growth at concentration (Average MIC data) ([6]; 0.25 μg/ml) | Growth at concentration (Average MIC data) ([6]; 0.5 μg/ml)
No growth: Growth at concentration (Average MIC data) ([2]; 64 μg/ml) | Growth at concentration (Average MIC data) ([2]; 128 μg/ml) | Growth at concentration (Average MIC data) ([3]; 1 μg/ml) | Growth at concentration (Average MIC data) ([3]; 2 μg/ml) | Growth at concentration (Average MIC data) ([3]; 4 μg/ml) | Growth at concentration (Average MIC data) ([3]; 8 μg/ml) | Growth at concentration (Average MIC data) ([3]; 16 μg/ml) | Growth at concentration (Average MIC data) ([3]; 32 μg/ml) | Growth at concentration (Average MIC data) ([3]; 64 μg/ml) | Growth at concentration (Average MIC data) ([3]; 128 μg/ml) | Growth at concentration (Average MIC data) ([4]; 4 μg/ml) | Growth at concentration (Average MIC data) ([4]; 8 μg/ml) | Growth at concentration (Average MIC data) ([4]; 16 μg/ml) | Growth at concentration (Average MIC data) ([4]; 32 μg/ml) | Growth at concentration (Average MIC data) ([4]; 64 μg/ml) | Growth at concentration (Average MIC data) ([4]; 128 μg/ml) | Growth at concentration (Average MIC data) ([5]; 0.5 μg/ml) | Growth at concentration (Average MIC data) ([5]; 1 μg/ml) | Growth at concentration (Average MIC data) ([5]; 2 μg/ml) | Growth at concentration (Average MIC data) ([5]; 4 μg/ml) | Growth at concentration (Average MIC data) ([5]; 8 μg/ml) | Growth at concentration (Average MIC data) ([5]; 16 μg/ml) | Growth at concentration (Average MIC data) ([5]; 32 μg/ml) | Growth at concentration (Average MIC data) ([5]; 64 μg/ml) | Growth at concentration (Average MIC data) ([5]; 128 μg/ml) | Growth at concentration (Average MIC data) ([6]; 1 μg/ml) | Growth at concentration (Average MIC data) ([6]; 2 μg/ml) | Growth at concentration (Average MIC data) ([6]; 4 μg/ml) | Growth at concentration (Average MIC data) ([6]; 8 μg/ml) | Growth at concentration (Average MIC data) ([6]; 16 μg/ml) | Growth at concentration (Average MIC data) ([6]; 32 μg/ml) | Growth at concentration (Average MIC data) ([6]; 64 μg/ml) | Growth at concentration (Average MIC data) ([6]; 128 μg/ml)
